In US20260132164A1, “PNU ANTHRACYCLINE DERIVATIVES AND METHODS OF USE THEREOF” (Merck Sharp & Dohme LLC, priority 2022, published 2026) one finds EC50 data, which are given here for 27 compounds.

pEC50: −log10 of the molar value.

One assay relates to BxPC3. Nature of the assay: CellTiter-Glo 2.0 Cytotoxicity Assay. Format: cell-based. The settings on record: CellTiter-Glo 2.0 luminescence; compound added day 1, read on day 4 or 5; 3000 cells/well. For orientation: ATP-based viability assays read luminescence as a measure of living cells.
Take `COc1cccc2c1C(=O)c1c(O)c3c(c(O)c1C2=O)C[C@@](O)(C(=O)NC1CNCC1(F)F)C[C@@H]3O[C@H]1C[C@H]2[C@H](O[C@@H]3[C@@H](OC)OCCN32)[C@H](C)O1` (stereo partly drawn) [Compound 16]: the negative-log EC50 (pEC50) is 7.62. Consider `COc1cccc2c1C(=O)c1c(O)c3c(c(O)c1C2=O)C[C@@](O)(C(=O)NC1CCC1N)C[C@@H]3O[C@H]1C[C@H]2[C@H](O[C@@H]3[C@@H](OC)OCCN32)[C@H](C)O1` (stereo partly drawn) [Compound 19], for which the negative logarithm of the EC50 (pEC50) is 8.40. As for `COc1cccc2c1C(=O)c1c(O)c3c(c(O)c1C2=O)C[C@@](O)(C(=O)NC1CCC1N)C[C@@H]3O[C@H]1C[C@H]2[C@H](O[C@@H]3[C@@H](OC)OCCN32)[C@H](C)O1` (stereo partly drawn) [Compound 20], the negative-log EC50 (pEC50) was 8.07.

The same assay, now with this note: Homo sapiens, BXPC-3, CellTiter-Glo 2.0 luminescence; compound added day 1, read on day 4 or 5; 3000 cells/well.
The compound `COc1cccc2c1C(=O)c1c(O)c3c(c(O)c1C2=O)C[C@@](O)(C(=O)NCC(C)(C)N)C[C@@H]3O[C@H]1C[C@H]2[C@H](O[C@@H]3[C@@H](OC)OCCN32)[C@H](C)O1` [Compound 61, (2S,4S)—N-(2-amino-2-methylpropyl)-2,5,12-trihydroxy-7-methoxy-4-(((1S,3R,4aS,9S,9aR,10aS)-9-methoxy-1-methyloctahydro-1H-pyrano[4′,3′:4,5]oxazolo[2,3-c][1,4]oxazin-3-yl)oxy)-6,11-dioxo-1,2,3,4,6,11-hexahydrotetracene-2-carboxamide] gave a negative-log EC50 (pEC50) of 8.06.

In the case of `COc1cccc2c1C(=O)c1c(O)c3c(c(O)c1C2=O)C[C@@](O)(C(=O)NC[C@@H]1CNC(=O)C1)C[C@@H]3O[C@H]1C[C@H]2[C@H](O[C@@H]3[C@@H](OC)OCCN32)[C@H](C)O1` [Compound 86], the pEC50 was 9.41. As for `COc1cccc2c1C(=O)c1c(O)c3c(c(O)c1C2=O)C[C@@](O)(C(=O)NCCN1C(=O)CNC1=O)C[C@@H]3O[C@H]1C[C@H]2[C@H](O[C@@H]3[C@@H](OC)OCCN32)[C@H](C)O1` [Compound 62], the pEC50 is 9.72. In turn, `COc1cccc2c1C(=O)c1c(O)c3c(c(O)c1C2=O)C[C@@](O)(C(=O)NCCC(N)C(F)(F)F)C[C@@H]3O[C@H]1C[C@H]2[C@H](O[C@@H]3[C@@H](OC)OCCN32)[C@H](C)O1` (stereo partly drawn) [Compound 73] gave a pEC50 of 9.70.

On to `COc1cccc2c1C(=O)c1c(O)c3c(c(O)c1C2=O)C[C@@](O)(C(=O)NC[C@H]1C[C@H](N)C1)C[C@@H]3O[C@H]1C[C@H]2[C@H](O[C@@H]3[C@@H](OC)OCCN32)[C@H](C)O1` [Compound 43], for which the negative-log EC50 (pEC50) is 8.66.

In turn, `COc1cccc2c1C(=O)c1c(O)c3c(c(O)c1C2=O)C[C@@](O)(C(=O)N[C@H]1CC[C@H](N)CC1)C[C@@H]3O[C@H]1C[C@H]2[C@H](O[C@@H]3[C@@H](OC)OCCN32)[C@H](C)O1` [Compound 59] had a negative-log EC50 (pEC50) of 8.20.

With `COc1cccc2c1C(=O)c1c(O)c3c(c(O)c1C2=O)C[C@@](O)(C(=O)N[C@H]1C[C@H](N)C1)C[C@@H]3O[C@H]1C[C@H]2[C@H](O[C@@H]3[C@@H](OC)OCCN32)[C@H](C)O1` [Compound 42], the negative logarithm of the EC50 (pEC50) was 7.92. With `COc1cccc2c1C(=O)c1c(O)c3c(c(O)c1C2=O)C[C@@](O)(C(=O)NCc1ccc(N)cn1)C[C@@H]3O[C@H]1C[C@H]2[C@H](O[C@@H]3[C@@H](OC)OCCN32)[C@H](C)O1` [Compound 32], the pEC50 is 10.15. Compound `COc1cccc2c1C(=O)c1c(O)c3c(c(O)c1C2=O)C[C@@](O)(C(=O)NCc1ccccc1N)C[C@@H]3O[C@H]1C[C@H]2[C@H](O[C@@H]3[C@@H](OC)OCCN32)[C@H](C)O1` [Compound 79] gave a negative logarithm of the EC50 (pEC50) of 9.82. The same measure, in the same setting: for `COc1cccc2c1C(=O)c1c(O)c3c(c(O)c1C2=O)C[C@@](O)(C(=O)NCC1(N)CC1)C[C@@H]3O[C@H]1C[C@H]2[C@H](O[C@@H]3[C@@H](OC)OCCN32)[C@H](C)O1` [Compound 64] the value was 9.31; for `COc1cccc2c1C(=O)c1c(O)c3c(c(O)c1C2=O)C[C@@](O)(C(=O)NCCCNCCCNC(=O)CN)C[C@@H]3O[C@H]1C[C@H]2[C@H](O[C@@H]3[C@@H](OC)OCCN32)[C@H](C)O1` [Compound 8], 7.32; for `COc1cccc2c1C(=O)c1c(O)c3c(c(O)c1C2=O)C[C@@](O)(C(=O)N1CC2(CNC2)C1)C[C@@H]3O[C@H]1C[C@H]2[C@H](O[C@@H]3[C@@H](OC)OCCN32)[C@H](C)O1` [Compound 30], 7.85. As for `COc1cccc2c1C(=O)c1c(O)c3c(c(O)c1C2=O)C[C@@](O)(C(=O)NCCO)C[C@@H]3O[C@H]1C[C@H]2[C@H](O[C@@H]3[C@@H](OC)OCCN32)[C@H](C)O1` [Compound 89], the pEC50 is 9.43. For the compound `COc1cccc2c1C(=O)c1c(O)c3c(c(O)c1C2=O)C[C@@](O)(C(=O)NCCCN1CCNCC1)C[C@@H]3O[C@H]1C[C@H]2[C@H](O[C@@H]3[C@@H](OC)OCCN32)[C@H](C)O1` [Compound 39], the negative logarithm of the EC50 (pEC50) is 8.42. In turn, `COc1cccc2c1C(=O)c1c(O)c3c(c(O)c1C2=O)C[C@@](O)(C(=O)NCCN1CCNC1=O)C[C@@H]3O[C@H]1C[C@H]2[C@H](O[C@@H]3[C@@H](OC)OCCN32)[C@H](C)O1` [Compound 63] showed a pEC50 of 9.85. `COc1cccc2c1C(=O)c1c(O)c3c(c(O)c1C2=O)C[C@@](O)(C(=O)N[C@@H]1CC[C@H](N)C1)C[C@@H]3O[C@H]1C[C@H]2[C@H](O[C@@H]3[C@@H](OC)OCCN32)[C@H](C)O1` [Compound 33]: the pEC50 is 8.04. Still for that read-out and setting: as for `COc1cccc2c1C(=O)c1c(O)c3c(c(O)c1C2=O)C[C@@](O)(C(=O)NC12CC(CN)(C1)C2)C[C@@H]3O[C@H]1C[C@H]2[C@H](O[C@@H]3[C@@H](OC)OCCN32)[C@H](C)O1` [Compound 44], the figure is 8.32. With `CNCCCNC(=O)[C@]1(O)Cc2c(O)c3c(c(O)c2[C@@H](O[C@H]2C[C@H]4[C@H](O[C@@H]5[C@@H](OC)OCCN54)[C@H](C)O2)C1)C(=O)c1c(OC)cccc1C3=O` [Compound 38], the pEC50 was 8.04. Still for that read-out and setting: for `COc1cccc2c1C(=O)c1c(O)c3c(c(O)c1C2=O)C[C@@](O)(C(=O)NCCC1(N)COC1)C[C@@H]3O[C@H]1C[C@H]2[C@H](O[C@@H]3[C@@H](OC)OCCN32)[C@H](C)O1` [Compound 51] the value was 9.74. Still for that read-out and setting: as for `COc1cccc2c1C(=O)c1c(O)c3c(c(O)c1C2=O)C[C@@](O)(C(=O)NCC12CC(N)(C1)C2)C[C@@H]3O[C@H]1C[C@H]2[C@H](O[C@@H]3[C@@H](OC)OCCN32)[C@H](C)O1` [Compound 84], the figure is 9.21; as for `COc1cccc2c1C(=O)c1c(O)c3c(c(O)c1C2=O)C[C@@](O)(C(=O)NC[C@H]1CCNC1)C[C@@H]3O[C@H]1C[C@H]2[C@H](O[C@@H]3[C@@H](OC)OCCN32)[C@H](C)O1` [Compound 37], 8.10. Compound `COc1cccc2c1C(=O)c1c(O)c3c(c(O)c1C2=O)C[C@@](O)(C(=O)NCc1nc(N)cn1C)C[C@@H]3O[C@H]1C[C@H]2[C@H](O[C@@H]3[C@@H](OC)OCCN32)[C@H](C)O1` [Compound 82] gave a pEC50 of 9.59. The same measure, in the same setting: for `COc1cccc2c1C(=O)c1c(O)c3c(c(O)c1C2=O)C[C@@](O)(C(=O)NC12CNCC1C2)C[C@@H]3O[C@H]1C[C@H]2[C@H](O[C@@H]3[C@@H](OC)OCCN32)[C@H](C)O1` (stereo partly drawn) [Compound 57] the value was 8.80; for `COc1cccc2c1C(=O)c1c(O)c3c(c(O)c1C2=O)C[C@@](O)(C(=O)NCCN(C)C(=O)C1CCNC1)C[C@@H]3O[C@H]1C[C@H]2[C@H](O[C@@H]3[C@@H](OC)OCCN32)[C@H](C)O1` (single isomer, unassigned) [Compound 49], 7.51.

The term pEC50 denotes the negative decadic logarithm of the EC50, by convention in mol/L. A high value points to a small EC50.
